Assay results as given in publication PMC9929232, “On-demand male contraception via acute inhibition of soluble adenylyl cyclase” (Nature Communications, 2023).

Tests used:
[1] = TDI-11155 blood concentration during osmotic minipump delivery; assay type: in vivo, mouse
Method: (§1) At defined time points (15 min to 24 hours post-injection), 10 μl tail blood was progressively collected from the same males, mixed with 20 μl 15 mM EDTA, frozen in liquid nitrogen, and stored at −80 °C until analysis. Liver, kidney, eye, testis, caput and cauda epididymis, and seminal vesicle were collected, weighed, and homogenized in a threefold volume of 1:1 EtOH/H2O (v/v). […] Mice anesthetized with ketamine/xylazine were shaved and residual hair was removed with hair removal cream. A small incision was made with a scalpel, a hemostat was used to create a pump-size pocket under the skin, and the pump was inserted with the pump opening facing away from the incision. After the wound was closed, mice were treated with meloxicam for pain relief. For 7 or 42 days post-surgery, tail blood was collected at regular intervals.

[2] = molecular target: T1, sAC-overexpressing rat 4-4 cells (Rattus norvegicus, UniProt Q9Z286); design: method as in PMID 36246105; details: read-out: IC50 in cellular assays; cited from earlier work
T1 construct: expressed in transfected cells
T1 sequence (Q9Z286 1-469 limits assumed): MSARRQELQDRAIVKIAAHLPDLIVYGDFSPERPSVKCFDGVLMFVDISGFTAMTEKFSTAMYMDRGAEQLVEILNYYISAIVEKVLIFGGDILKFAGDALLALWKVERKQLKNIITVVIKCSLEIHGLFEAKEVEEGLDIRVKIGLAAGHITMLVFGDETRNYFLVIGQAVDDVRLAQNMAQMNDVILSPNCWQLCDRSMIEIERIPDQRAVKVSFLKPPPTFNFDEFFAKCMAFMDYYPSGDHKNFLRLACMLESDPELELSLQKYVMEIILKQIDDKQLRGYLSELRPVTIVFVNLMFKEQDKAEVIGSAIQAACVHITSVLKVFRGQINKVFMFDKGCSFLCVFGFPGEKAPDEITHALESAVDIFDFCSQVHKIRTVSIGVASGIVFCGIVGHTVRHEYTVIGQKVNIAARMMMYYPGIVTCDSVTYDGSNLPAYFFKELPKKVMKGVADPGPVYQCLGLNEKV

[3] = system: testis, epididymis, kidneys, eyes, liver, spleen, pancreas; details: mouse, in vivo
Method: as §1
Blinded histopathological evaluation of indicated organs (testis, epididymis, kidneys, eyes, liver, spleen, and pancreas) was performed by a board-certified comparative pathologist at the WCM Laboratory of Comparative Pathology. […] Organs were fixed in 10% neutral buffered formalin followed by embedding into paraffin. Sections were cut followed by staining with hematoxylin and eosin (H&E) for microscopic evaluation.

Cn1cc(Cc2ccccc2OCCN2CCOCC2)c(-c2cc(Cl)nc(N)n2)n1 [TDI-11155]
delivered level relative to cellular IC50 ([1]; 7 days): 15 fold
delivered level relative to cellular IC50 ([1]; 42 days): threefold
IC50 [2]: 16 nM
Epididymis: Epithelial karyomegaly [3]: 2, MF
Epididymis: Exfoliated germ cells [3]: 1, MF
Eyes [3]: N
Kidneys: Lymphoplasmacytic and histiocytic infiltrates, pelvic [3]: 1, MF
Kidneys: Tubular basophilia, cortical [3]: 1, F
Kidneys: Tubular mineralization, papillary [3]: 1, F
Liver: Extramedullary hematopoiesis, random [3]: 1, MF
Liver: Lymphoplasmacytic, histiocytic, and neutrophilic hepatitis, midzonal [3]: 1, F
Liver: Lymphoplasmacytic, histiocytic, and neutrophilic hepatitis, periportal [3]: 2, F
Pancreas [3]: N
Spleen [3]: N
behavioral effects during treatment [3]: no observed behavioral effects
gross abnormalities in major organs at study termination [3]: no gross abnormalities
salt precipitation in kidneys [3]: no signs of salt precipitation
